Data taken from patent US20240217951A1, “PCSK9 INHIBITORS AND METHODS OF USE THEREOF” (AstraZeneca AB, priority 2022, published 2024).

Experiments:
[1] = target: T1, PCSK9 (Homo sapiens, UniProt Q8NBP7, G670E/V474I); assay: Assay 3 - PCSK9 LDL-C uptake assay in HepG2 cells; format: cell-based; design: TEV cleavage site (C); His6 (C); host or cells: added to HepG2 cells (ATCC #HB-8065); conditions: 125 nM PCSK9, pHrodo Red-LDL, read-out: Assay 3 LDL uptake potency
From the text: Assay 3—PCSK9 LDL-C Uptake Assay
This assay measures for PCSK9 antagonist activity based on a test compound's capacity to restore LDL-C-uptake in HepG2 cells. The assay is based on exogenous PCSK9 and LDL-C complexed with a pH-sensitive dye. Outside the cells, at neutral pH, the pHrodo Red-LDL is dimly fluorescent but upon LDLR mediated endocytosis it fluoresces brightly. PCSK9 traffics the LDLR to intracellular degradation and reduces uptake of LDL-C. Inhibition of PCSK9 reduces LDLR degradation and the increased LDL-C uptake is quantified by fluorescence microscopy.
Preparation of Assay Reagents
Cell medium: MEM supplemented with 10% FBS, 1×NEAA and Sodium Pyruvate Assay medium: OptiMem supplemented with penicillin/streptomycin
Cells: HepG2 (ATCC #HB-8065)
Step by Step Protocol for Running the Assay:
• 1. Cryopreserved HepG2 cells were thawed in assay medium and centrifuged for 5 min at 250 g. Supernatant was discarded and the cell pellet resuspended in cell medium and counted with a Nucleocounter. Cells were again centrifuged 5 min at 250 g and the pellet was resuspended to 500000 cells/mL in assay medium. • 2. 20 μL of above cell mix was dispensed into black pclear TC treated 384 well plates with Multidrop Combi and left at room temperature for 20 minutes. • 3. Plates were incubated at 37° C., 5% CO2 for 24 h
• 1. Test compounds were prepared in concentration response in DMSO with a half-log dilution factor in DMSO in Echo 384 LDV plates starting at 10 mM. • 2. 30 nL of above test compounds were dispensed with Echo 655 to cells for a top concentration of 10 μM • 3. 10 μL PCSK9 in assay medium was dispensed to cells with Multidrop Combi for 125 nM final concentration in the wells. • 4. Plates were incubated at 37° C., 5% CO2 for 24 h
• 1. 10 μL pHrodo Red-LDL in assay medium was dispensed to cells with Multidrop Combi for 6 μg/mL • 2. Plates were incubated at 37° C., 5% CO2 and imaged with the Incucyte S3 after 4 h and 24 h
Image data was processed using Incucyte 2021, a software to identify cells and red fluorescent intensity. Screener was used to further process data. Data was normalized as % effect of the signal between median values of the on-plate controls of DMSO and 100 nM Evolocumab according to the formula % effect=−100*(x−DMSO)/(Evolocumab−DMSO) where x equals the measured signal. Concentration response data of the normalized values were fitted using a four-parameter logistic fit.

[2] = target: T1, PCSK9; assay: biochemical
[3] = target: GSK3β (Glycogen synthase kinase-3 beta) (Homo sapiens, UniProt P49841); assay: Assay 6 - GSK3β assay (ThermoFisher Z-Lyte); format: biochemical; conditions: geometric mean; ATP Conc: 10 μM; read-out: Assay 6 (GSK3β FRET-Z-Lyte CR) GMean IC50 (μM) ATP Conc: 10
Sequence of GSK3β (Glycogen synthase kinase-3 beta) (P49841 whole entry): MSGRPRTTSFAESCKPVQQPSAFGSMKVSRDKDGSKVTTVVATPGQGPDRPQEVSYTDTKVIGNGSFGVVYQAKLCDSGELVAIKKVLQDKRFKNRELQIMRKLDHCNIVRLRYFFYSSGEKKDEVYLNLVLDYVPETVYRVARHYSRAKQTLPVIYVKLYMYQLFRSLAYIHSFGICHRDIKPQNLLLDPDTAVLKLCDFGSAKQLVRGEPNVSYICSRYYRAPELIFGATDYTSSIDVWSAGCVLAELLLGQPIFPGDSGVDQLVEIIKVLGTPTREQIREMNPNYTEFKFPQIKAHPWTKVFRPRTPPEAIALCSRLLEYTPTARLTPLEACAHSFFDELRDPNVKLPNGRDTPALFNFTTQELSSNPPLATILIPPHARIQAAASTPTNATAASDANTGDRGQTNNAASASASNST
How it was run: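 Z-Lyte fluorescence kinase assay with 0.22-0.92 ng GSK3β and 2 μM Ser/Thr 09 peptide in 50 mM HEPES pH 7.5, 10 mM MgCl2, 1 mM EGTA, 0.01% BRIJ-35. Kinase reaction 60 min at room temperature, then 60 min development. 10-point 3-fold titration from 10 μM in 1% DMSO, fitted to a sigmoidal dose-response curve.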

[4] = target: T2, potassium ion channel hERG (human Ether-á-go-go-Related Gene) (Homo sapiens, UniProt Q12809); assay: Assay 5 - hERG assay (SyncroPatch 384PE patch clamp, CHO cells); format: cell-based; conditions: geometric mean; CHO cells over-expressing hERG; read-out: Assay 5 (hERG Hu CHO IF EPh CR-Syncro) GMean IC50
T2 construct: expressed in transfected cells; host or cells: Chinese hamster ovary K1 (CHO)
T2 sequence (Q12809 whole entry): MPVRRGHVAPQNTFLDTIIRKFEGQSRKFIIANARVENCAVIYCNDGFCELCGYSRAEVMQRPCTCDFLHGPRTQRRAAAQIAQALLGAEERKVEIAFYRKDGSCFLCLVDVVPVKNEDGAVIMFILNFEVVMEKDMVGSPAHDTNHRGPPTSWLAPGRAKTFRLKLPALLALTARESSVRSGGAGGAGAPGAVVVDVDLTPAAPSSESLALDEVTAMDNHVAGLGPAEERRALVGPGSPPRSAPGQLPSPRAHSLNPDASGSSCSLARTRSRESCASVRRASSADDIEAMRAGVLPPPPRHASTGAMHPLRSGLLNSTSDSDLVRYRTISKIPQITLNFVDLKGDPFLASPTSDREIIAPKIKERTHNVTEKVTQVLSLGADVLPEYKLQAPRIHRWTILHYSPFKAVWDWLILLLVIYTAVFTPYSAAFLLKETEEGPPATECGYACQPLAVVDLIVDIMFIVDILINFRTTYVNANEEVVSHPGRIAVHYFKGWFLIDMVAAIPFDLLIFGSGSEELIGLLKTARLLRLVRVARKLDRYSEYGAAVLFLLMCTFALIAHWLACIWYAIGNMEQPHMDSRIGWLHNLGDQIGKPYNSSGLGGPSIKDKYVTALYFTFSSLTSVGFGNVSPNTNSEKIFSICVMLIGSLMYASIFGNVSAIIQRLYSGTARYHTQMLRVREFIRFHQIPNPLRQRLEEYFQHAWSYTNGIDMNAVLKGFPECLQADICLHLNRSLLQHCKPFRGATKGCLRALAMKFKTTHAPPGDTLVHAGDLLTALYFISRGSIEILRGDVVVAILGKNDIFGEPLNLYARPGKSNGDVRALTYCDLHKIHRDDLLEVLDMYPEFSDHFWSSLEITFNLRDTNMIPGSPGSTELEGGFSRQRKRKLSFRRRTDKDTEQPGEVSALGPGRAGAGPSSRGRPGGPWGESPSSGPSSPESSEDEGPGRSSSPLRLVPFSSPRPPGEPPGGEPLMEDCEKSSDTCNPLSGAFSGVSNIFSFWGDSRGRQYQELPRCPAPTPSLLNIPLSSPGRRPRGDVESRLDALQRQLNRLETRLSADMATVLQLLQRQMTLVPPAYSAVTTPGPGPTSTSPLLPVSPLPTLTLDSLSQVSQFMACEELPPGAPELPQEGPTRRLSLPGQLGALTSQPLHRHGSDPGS
How it was run: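 Automated high-throughput patch clamp on CHO-K1 cells overexpressing hERG at room temperature, KF/KCl internal with escin, NMDG-containing external at pH 7.4. Six-point cumulative compound addition, 0.33% DMSO final; wells kept only with seal >30 MΩ, Z′ >0.4 and current >0.2 nA.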

T1 sequence (Q8NBP7 with tags, fused parts or gaps V474I/G670E): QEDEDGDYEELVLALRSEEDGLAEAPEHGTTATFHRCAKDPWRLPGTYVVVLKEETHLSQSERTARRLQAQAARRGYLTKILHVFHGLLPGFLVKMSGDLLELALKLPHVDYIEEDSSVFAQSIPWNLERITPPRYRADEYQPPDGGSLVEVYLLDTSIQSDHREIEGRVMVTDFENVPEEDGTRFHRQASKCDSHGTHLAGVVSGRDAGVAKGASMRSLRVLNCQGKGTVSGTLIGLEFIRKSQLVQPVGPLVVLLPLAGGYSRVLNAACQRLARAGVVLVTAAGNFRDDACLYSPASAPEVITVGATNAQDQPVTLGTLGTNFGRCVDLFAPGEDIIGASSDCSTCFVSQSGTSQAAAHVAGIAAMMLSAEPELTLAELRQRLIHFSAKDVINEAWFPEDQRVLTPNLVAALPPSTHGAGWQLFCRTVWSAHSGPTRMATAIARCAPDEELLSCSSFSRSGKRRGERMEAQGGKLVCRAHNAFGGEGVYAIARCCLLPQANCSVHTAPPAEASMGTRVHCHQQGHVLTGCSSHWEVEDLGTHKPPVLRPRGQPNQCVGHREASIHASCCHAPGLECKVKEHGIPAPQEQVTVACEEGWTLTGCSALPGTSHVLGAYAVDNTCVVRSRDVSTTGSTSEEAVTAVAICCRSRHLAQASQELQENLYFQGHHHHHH

Compound | EC50 [1] [nM] | IC50 [2] [nM] | IC50 [3] [µM] | IC50 [4] [nM]
N#Cc1cccn(-c2ccc(N[C@H]3CC[C@H](Nc4cnc(Cl)cn4)C3)nc2)c1=O [Example 101, 6′-(((1S,3S)-3-((5-Chloropyrazin-2-yl)amino)cyclopentyl)amino)-2-oxo-2H-[1,3′-bipyridine]-3-carbonitrile] | 600 | 5.5 | > 10 | 19400
Cc1ncc(N[C@H]2CC[C@H](Nc3ccc(-n4cccc(Cl)c4=O)cn3)C2)nc1C [Example 19, 3-Chloro-6′-(((1S,3S)-3-((5,6-dimethylpyrazin-2-yl)amino)cyclopentyl)amino)-2H-[1,3′-bipyridin]-2-one] | 100 | 5.3 | > 10 | 24600
Cc1ncc(N[C@H]2CC[C@H](Nc3ccc(-n4cc(C(=O)O)ccc4=O)cn3)C2)nc1C [Example 14, 6′-(((1S,3S)-3-((5,6-Dimethylpyrazin-2-yl)amino)cyclopentyl)amino)-2-oxo-2H-[1,3′-bipyridine]-5-carboxylic acid] | 200 | 52 | > 10 | > 40000
Cc1ncc(N[C@H]2CC[C@H](Nc3ccc(-n4c(=O)n(C)c5ccccc54)cn3)C2)nc1C [Example 11, 1-(6-(((1S,3S)-3-((5,6-Dimethylpyrazin-2-yl)amino)cyclopentyl)amino)pyridin-3-yl)-3-methyl-1,3-dihydro-2H-benzo[d]imidazol-2-one] | 300 | 3.2 | > 10 | 20200
Cc1cnc(N[C@H]2CC[C@H](Nc3ccc(-n4nccc(Cl)c4=O)cn3)C2)cn1 [Example 232, 4-Chloro-2-(6-(((1S,3S)-3-((5-methylpyrazin-2-yl)amino)cyclopentyl)amino)pyridin-3-yl)pyridazin-3 (2H)-one] | 500 | 3.7 | > 10 | 39900
O=c1c(Cl)cccn1-c1ccc(N[C@H]2CC[C@H](Nc3cnc(C4CC4)cn3)C2)nc1 [Example 108, 3-Chloro-6′-(((1S,3S)-3-((5-Cyclopropylpyrazin-2-yl)amino)cyclopentyl)amino)-2H-[1,3′-bipyridin]-2-one] | 400 | 3.4 | > 10 | 12700
Cc1ncc(N[C@H]2CC[C@H](Nc3ccc(-n4c(=O)n(C)c5cccnc54)cn3)C2)nc1C [Example 21, 3-(6-(((1S,3S)-3-((5,6-Dimethylpyrazin-2-yl)amino)cyclopentyl)amino)pyridin-3-yl)-1-methyl-1,3-dihydro-2H-imidazo[4,5-b]pyridin-2-one] | 100 | 11 | > 10 | 33200
O=c1ccc2ccccc2n1-c1ccc(N[C@H]2CC[C@H](Nc3cnc(OC(F)F)cn3)C2)nc1 [Example 88, 1-(6-(((1S,3S)-3-((5-(Difluoromethoxy)pyrazin-2-yl)amino)cyclopentyl)amino)pyridin-3-yl)quinolin-2 (1H)-one] | 200 | 4.5 | > 10 | 4500
